Reference: publication PMC8908507 (ACS Omega, 2022)
“Also recorded” adds a separate entry of the source.

What was measured:
MAO-B [1] = molecular target: T1, MAO-B (Homo sapiens, UniProt P27338); test: Reversibility of MAO-B inhibition by dialysis; type: biochemical; details: for relative MAO-B activity, dialyzed (AD) / relative MAO-B activity, undialyzed (AU): MK6/MK12 6.0 nM, lazabemide 0.22 μM, pargyline 0.28 μM; for relative MAO-B activity, dialyzed (AD): after dialysis; for relative MAO-B activity, undialyzed (AU): preincubation 30 min; for reversibility of MAO-B inhibition: dialysis
T1 sequence (P27338 1-520): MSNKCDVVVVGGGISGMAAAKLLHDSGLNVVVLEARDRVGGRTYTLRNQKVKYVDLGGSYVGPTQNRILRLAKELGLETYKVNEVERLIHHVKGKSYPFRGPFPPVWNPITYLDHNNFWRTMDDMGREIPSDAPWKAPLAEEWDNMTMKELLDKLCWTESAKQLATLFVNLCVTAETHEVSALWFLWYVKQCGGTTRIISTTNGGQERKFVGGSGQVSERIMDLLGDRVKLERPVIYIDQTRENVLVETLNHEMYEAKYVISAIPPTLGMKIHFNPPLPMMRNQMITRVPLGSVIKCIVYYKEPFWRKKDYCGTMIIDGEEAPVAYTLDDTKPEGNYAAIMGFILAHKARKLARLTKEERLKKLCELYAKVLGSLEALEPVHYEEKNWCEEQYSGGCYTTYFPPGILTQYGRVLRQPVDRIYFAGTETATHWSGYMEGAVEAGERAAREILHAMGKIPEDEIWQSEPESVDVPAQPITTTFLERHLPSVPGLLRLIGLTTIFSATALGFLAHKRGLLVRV

BACE1 = BACE1 (Homo sapiens, UniProt P56817); test: biochemical; details: read-out: residual activity (%) BACE1
[2] = Cytotoxicity on Vero cells, MTT method; type: cell-based, African green monkey; details: African green monkey, Vero cells (normal kidney epithelial cell line)
Vero cells [3] = test: Cytotoxicity on Vero cells, MTT method; type: cell-based, African green monkey; details: 100 μg/mL, 24 h
AChE = AChE (Electrophorus electricus, UniProt O42275); test: AChE inhibition; details: 10 μM
BChE = BChE (Equus caballus, UniProt P81908); details: 10 μM
Vero cells [4] = test: Intracellular ROS assay in H2O2-treated Vero cells; type: cell-based, African green monkey; details: 24 h drug treatment, vs H2O2-treated control
MAO-A = molecular target: T2, MAO-A (Homo sapiens, UniProt P21397); test: biochemical; details: for remaining activity at 10 µM: read-out: residual activity (%) MAO-A
T2 sequence (P21397 1-527): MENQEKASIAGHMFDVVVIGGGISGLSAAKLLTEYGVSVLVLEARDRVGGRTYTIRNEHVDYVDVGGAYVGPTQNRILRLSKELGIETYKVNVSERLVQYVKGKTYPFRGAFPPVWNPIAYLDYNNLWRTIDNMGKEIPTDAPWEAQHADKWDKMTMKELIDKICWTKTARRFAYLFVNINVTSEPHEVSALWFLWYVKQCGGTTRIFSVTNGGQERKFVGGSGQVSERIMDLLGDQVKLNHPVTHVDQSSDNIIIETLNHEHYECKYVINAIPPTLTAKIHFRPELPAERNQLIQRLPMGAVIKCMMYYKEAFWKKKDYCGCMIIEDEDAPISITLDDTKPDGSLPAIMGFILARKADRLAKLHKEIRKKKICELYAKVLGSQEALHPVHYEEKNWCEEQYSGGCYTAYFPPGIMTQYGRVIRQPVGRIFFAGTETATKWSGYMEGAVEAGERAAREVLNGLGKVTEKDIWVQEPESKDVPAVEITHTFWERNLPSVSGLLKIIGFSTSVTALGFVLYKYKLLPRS

MAO-B [5] = details: cited from earlier work
human MAO-B = details: read-out: IC50 human MAO-B; cited from earlier work
MAO-B [6] = molecular target: T1, MAO-B; test: MAO-B enzyme kinetics, Lineweaver–Burk and secondary plots; type: biochemical
MAO-B [7] = molecular target: T1, MAO-B; test: MAO-B inhibition, recombinant enzyme, benzylamine substrate; type: biochemical

Chain of BChE (P81908 whole entry): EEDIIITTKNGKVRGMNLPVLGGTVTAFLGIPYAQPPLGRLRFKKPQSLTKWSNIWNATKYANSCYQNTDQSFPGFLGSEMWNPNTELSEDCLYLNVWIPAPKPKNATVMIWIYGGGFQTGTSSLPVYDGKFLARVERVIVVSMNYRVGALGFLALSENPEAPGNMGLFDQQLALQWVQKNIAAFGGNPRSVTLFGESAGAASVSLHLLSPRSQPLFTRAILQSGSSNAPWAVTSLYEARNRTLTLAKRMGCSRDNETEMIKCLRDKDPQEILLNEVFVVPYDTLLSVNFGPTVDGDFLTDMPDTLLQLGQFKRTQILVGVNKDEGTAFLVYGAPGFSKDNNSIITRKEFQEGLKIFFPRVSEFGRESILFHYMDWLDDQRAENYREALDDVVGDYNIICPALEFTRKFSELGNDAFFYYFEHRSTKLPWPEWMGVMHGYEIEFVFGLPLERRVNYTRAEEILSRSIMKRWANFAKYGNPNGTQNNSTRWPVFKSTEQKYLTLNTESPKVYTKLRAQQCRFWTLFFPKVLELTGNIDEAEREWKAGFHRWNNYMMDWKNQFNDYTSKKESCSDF
Chain of BACE1 (P56817 46-501): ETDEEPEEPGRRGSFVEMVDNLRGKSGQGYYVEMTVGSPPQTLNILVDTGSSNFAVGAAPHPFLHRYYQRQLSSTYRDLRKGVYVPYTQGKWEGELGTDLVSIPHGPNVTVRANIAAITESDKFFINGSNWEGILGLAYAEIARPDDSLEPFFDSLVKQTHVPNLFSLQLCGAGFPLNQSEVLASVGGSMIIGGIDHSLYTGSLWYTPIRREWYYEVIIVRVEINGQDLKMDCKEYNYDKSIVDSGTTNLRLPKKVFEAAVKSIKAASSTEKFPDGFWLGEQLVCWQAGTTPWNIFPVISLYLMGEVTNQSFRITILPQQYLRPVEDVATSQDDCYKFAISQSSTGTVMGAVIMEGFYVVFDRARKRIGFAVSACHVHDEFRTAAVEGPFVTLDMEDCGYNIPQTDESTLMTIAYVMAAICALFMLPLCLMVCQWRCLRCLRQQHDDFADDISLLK
Chain of AChE (O42275 24-633): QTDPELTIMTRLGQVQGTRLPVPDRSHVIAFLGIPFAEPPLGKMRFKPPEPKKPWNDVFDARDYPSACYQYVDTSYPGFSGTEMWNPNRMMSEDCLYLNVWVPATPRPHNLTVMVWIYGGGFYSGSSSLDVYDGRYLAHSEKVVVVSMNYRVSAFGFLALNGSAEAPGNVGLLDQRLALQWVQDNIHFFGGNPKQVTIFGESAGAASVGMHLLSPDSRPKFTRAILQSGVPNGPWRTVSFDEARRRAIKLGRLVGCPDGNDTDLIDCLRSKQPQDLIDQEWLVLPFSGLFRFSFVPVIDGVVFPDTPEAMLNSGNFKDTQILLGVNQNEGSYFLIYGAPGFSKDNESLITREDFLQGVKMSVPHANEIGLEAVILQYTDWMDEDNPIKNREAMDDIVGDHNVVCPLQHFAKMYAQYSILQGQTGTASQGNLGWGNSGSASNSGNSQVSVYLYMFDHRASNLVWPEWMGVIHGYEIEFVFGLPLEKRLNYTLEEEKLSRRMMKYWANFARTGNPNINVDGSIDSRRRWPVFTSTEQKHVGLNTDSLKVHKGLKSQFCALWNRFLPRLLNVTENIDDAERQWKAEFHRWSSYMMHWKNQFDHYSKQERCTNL

Row | SMILES | relative MAO-B activity, dialyzed (AD) (MAO-B [1]) | relative MAO-B activity, undialyzed (AU) (MAO-B [1]) | reversibility of MAO-B inhibition (MAO-B [1]) | remaining activity at 10 µM (BACE1) | toxicity by cellular morphology, phase-contrast microscopy (Vero cells [3]) | residual activity (%) AChE (AChE) | residual activity (%) BChE (BChE) | intracellular ROS scavenging (Vero cells [4]) | IC50 (MAO-A) | remaining activity at 10 µM (MAO-A) | IC50 (human MAO-B) | also measured
1 | O=C(/C=C/C=C/c1ccccc1)c1ccc(Br)cc1 [MK6, (2E,4E)-1-(4-Bromophenyl)-5-phenylpenta-2,4-dien-1-one] | 79.2% | 34.9% | reversible inhibitors | 74.1 ± 1.48% | no signs of toxicity | 74.7 ± 0.66% | 97.5 ± 3.58% | significant scavenging effect of reactive oxygen species; also recorded: significant ROS scavenging effect | 20600 ± 1020 nM | 84 ± 1.22% |  | viability at 24 h, 80 μg/mL [2]: > 70%
2 | O=C(C=CC=Cc1ccccc1)c1ccc(N2CCOCC2)cc1 [MO10, 1-[4-(morpholin-4-yl)phenyl]-5-phenylpenta-2,4-dien-1-one] |  |  |  |  |  |  |  |  |  |  |  | SI value (MAO-B [5]): 366.13; IC50 (MAO-B [5]; read-out: IC50 MAO-B): 44 nM; Ki (MAO-B [5]; read-out: Ki MAO-B): 8 ± 3 nM
3 | COc1ccc(C(=O)/C=C/C=C/c2ccc(Cl)cc2)c(O)c1 [(2E,4E)-5-(4-chlorophenyl)-1-(2-hydroxy-4-methoxyphenyl)penta-2,4-dien-1-one] |  |  |  |  |  |  |  |  |  |  | 4.51 nM | 
4 | O=C(/C=C/C=C/c1ccc(Cl)cc1)c1ccc(O)cc1O [(2E,4E)-5-(4-chlorophenyl)-1-(2,4-dihydroxyphenyl)penta-2,4-dien-1-one] |  |  |  |  |  |  |  |  |  |  | 11.3 nM | 
5 | COc1ccc(/C=C/C=C/C(=O)c2ccc(F)cc2)cc1 [MK12, (2E,4E)-1-(4-Fluorophenyl)-5-(4-methoxyphenyl)penta-2,4-dien-1-one] | 74.7% | 33.4% | reversible inhibitors | 81.4 ± 1.03% | most toxic of the four tested compounds | 93.3 ± 0.73% | 94.6 ± 1.11% | significant scavenging effect of reactive oxygen species; also recorded: significant ROS scavenging effect | 5700 ± 720 nM | 40.9 ± 1.24% |  | viability at 24 h, 40 μg/mL [2]: > 80%; Ki (MAO-B [6]): 3 ± 0.27 nM; inhibition type for MAO-B (MAO-B [6]; Lineweaver–Burk plots): competitive inhibitors; SI (MAO-B compared with MAO-A) (MAO-B [7]; IC50 (MAO-A)/IC50 (MAO-B)): 1780.5; IC50 (MAO-B [7]; IC50 MAO-B): 3.22 ± 0.04 nM; remaining activity at 1 µM (MAO-B [7]; read-out: residual activity (%) MAO-B): -2.71%; times higher inhibitory activity than pargyline (MAO-B) (MAO-B [7]; vs reference irreversible MAO-B inhibitor pargyline): 44 times; times more potent than lazabemide (MAO-B) (MAO-B [7]; vs reference reversible MAO-B drug lazabemide): 34 times
